Measurements as given in PubChem BioAssay AID2060890 (Molecular Pharmacology Branch, DTP, NCI, 2025).

Tested on: LG0703-F948-PDC complex spheroid viability
Test: Anticancer human tumor LG0703-F948-PDC patient-derived lung adenocarcinoma cell line growth inhibition [RAS]
Details: for IC50: curve of first compound; for viability, T/C: stronger effect = lower value
In short: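 Tumour cells grown as complex spheroids with HUVEC endothelial cells and mesenchymal stem cells, treated with RAS pathway inhibitor combinations. Each agent spans half-log steps from near clinical Cmax, or 10 microM where Cmax is unknown.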

[1] = second compound 0.000949 µM, first compound 0.0316 µM
[2] = second compound 0.000949 µM, first compound 0.1 µM
[3] = second compound 0.000949 µM, first compound 0.316 µM
[4] = second compound 0.000949 µM, first compound 1 µM
[5] = second compound 0.000949 µM, first compound 3.16 µM
[6] = second compound 0.000949 µM, first compound 10 µM
[7] = second compound 0.003 µM, first compound 0.0316 µM
[8] = second compound 0.003 µM, first compound 0.1 µM
[9] = second compound 0.003 µM, first compound 0.316 µM
[10] = second compound 0.003 µM, first compound 1 µM
[11] = second compound 0.003 µM, first compound 3.16 µM
[12] = second compound 0.003 µM, first compound 10 µM
[13] = second compound 0.00949 µM, first compound 0.0316 µM
[14] = second compound 0.00949 µM, first compound 0.1 µM
[15] = second compound 0.00949 µM, first compound 0.316 µM
[16] = second compound 0.00949 µM, first compound 1 µM
[17] = second compound 0.00949 µM, first compound 3.16 µM
[18] = second compound 0.00949 µM, first compound 10 µM
[19] = second compound 0.03 µM, first compound 0.0316 µM
[20] = second compound 0.03 µM, first compound 0.1 µM
[21] = second compound 0.03 µM, first compound 0.316 µM
[22] = second compound 0.03 µM, first compound 1 µM
[23] = second compound 0.03 µM, first compound 3.16 µM
[24] = second compound 0.03 µM, first compound 10 µM
[25] = second compound 0.0949 µM, first compound 0.0316 µM
[26] = second compound 0.0949 µM, first compound 0.1 µM
[27] = second compound 0.0949 µM, first compound 0.316 µM
[28] = second compound 0.0949 µM, first compound 1 µM
[29] = second compound 0.0949 µM, first compound 3.16 µM
[30] = second compound 0.0949 µM, first compound 10 µM
[31] = second compound 0.3 µM, first compound 0.0316 µM
[32] = second compound 0.3 µM, first compound 0.1 µM
[33] = second compound 0.3 µM, first compound 0.316 µM
[34] = second compound 0.3 µM, first compound 1 µM
[35] = second compound 0.3 µM, first compound 3.16 µM
[36] = second compound 0.3 µM, first compound 10 µM
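Further: spheroids exposed to agents for 7 days.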
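Wherever viability, T/C is given: 100% = DMSO vehicle wells.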

Structure (SMILES): NC1c2ccccc2OC12CCN(c1cnc3c(N4CCCc5ncccc54)n[nH]c3n1)CC2 (centres undefined) + CCn1c(-c2cc(N3CCN(C)CC3)cnc2C(C)OC)c2c3cc(ccc31)-c1csc(n1)CC(NC(=O)C1CC1C)C(=O)N1CCCC(N1)C(=O)OCC(C)(C)C2
- IC50 (second compound 0.000949 µM): < 31.6 nM
- IC50 (second compound 0.003 µM): < 31.6 nM
- IC50 (second compound 0.00949 µM): < 31.6 nM
- IC50 (second compound 0.03 µM): < 31.6 nM
- IC50 (second compound 0.0949 µM): < 31.6 nM
- IC50 (second compound 0.3 µM): < 31.6 nM
- viability, T/C [1]: 30.3%
- viability, T/C [2]: 19.3%
- viability, T/C [3]: 11%
- viability, T/C [4]: 8.58%
- viability, T/C [5]: 5.25%
- viability, T/C [6]: 1.78%
- viability, T/C [7]: 20.3%
- viability, T/C [8]: 11.8%
- viability, T/C [9]: 9.37%
- viability, T/C [10]: 8.15%
- viability, T/C [11]: 3.56%
- viability, T/C [12]: 1.82%
- viability, T/C [13]: 14.5%
- viability, T/C [14]: 7.88%
- viability, T/C [15]: 5.28%
- viability, T/C [16]: 4.34%
- viability, T/C [17]: 2.68%
- viability, T/C [18]: 2.25%
- viability, T/C [19]: 8.5%
- viability, T/C [20]: 6.42%
- viability, T/C [21]: 4.71%
- viability, T/C [22]: 2.66%
- viability, T/C [23]: 2.29%
- viability, T/C [24]: 2.1%
- viability, T/C [25]: 6.81%
- viability, T/C [26]: 4.57%
- viability, T/C [27]: 4.01%
- viability, T/C [28]: 2.85%
- viability, T/C [29]: 3.37%
- viability, T/C [30]: 1.78%
- viability, T/C [31]: 3.46%
- viability, T/C [32]: 4.3%
- viability, T/C [33]: 3.62%
- viability, T/C [34]: 2.74%
- viability, T/C [35]: 1.58%
- viability, T/C [36]: 1.7%

Structure (SMILES): CC1(O)CCCC1n1c(=O)c(C(F)F)cc2cnc(NC3CCN(S(C)(=O)=O)CC3)nc21 (centres undefined) + CCn1c(-c2cc(N3CCN(C)CC3)cnc2C(C)OC)c2c3cc(ccc31)-c1csc(n1)CC(NC(=O)C1CC1C)C(=O)N1CCCC(N1)C(=O)OCC(C)(C)C2
- IC50 (second compound 0.000949 µM): 4620 nM
- IC50 (second compound 0.003 µM): < 31.6 nM
- IC50 (second compound 0.00949 µM): < 31.6 nM
- IC50 (second compound 0.03 µM): < 31.6 nM
- IC50 (second compound 0.0949 µM): < 31.6 nM
- IC50 (second compound 0.3 µM): < 31.6 nM
- viability, T/C [1]: 77.1%
- viability, T/C [2]: 89.8%
- viability, T/C [3]: 69.7%
- viability, T/C [4]: 71.1%
- viability, T/C [5]: 63%
- viability, T/C [6]: 28.3%
- viability, T/C [7]: 52.2%
- viability, T/C [8]: 48.5%
- viability, T/C [9]: 46.9%
- viability, T/C [10]: 52.1%
- viability, T/C [11]: 46.7%
- viability, T/C [12]: 18.4%
- viability, T/C [13]: 27.4%
- viability, T/C [14]: 31%
- viability, T/C [15]: 31%
- viability, T/C [16]: 29.3%
- viability, T/C [17]: 33.4%
- viability, T/C [18]: 13.4%
- viability, T/C [19]: 16.4%
- viability, T/C [20]: 18.5%
- viability, T/C [21]: 15.9%
- viability, T/C [22]: 19.1%
- viability, T/C [23]: 19.1%
- viability, T/C [24]: 7.67%
- viability, T/C [25]: 11.3%
- viability, T/C [26]: 14%
- viability, T/C [27]: 12.9%
- viability, T/C [28]: 17%
- viability, T/C [29]: 21%
- viability, T/C [30]: 5.97%
- viability, T/C [31]: 10.2%
- viability, T/C [32]: 7.6%
- viability, T/C [33]: 15.7%
- viability, T/C [34]: 12.1%
- viability, T/C [35]: 11.2%
- viability, T/C [36]: 5.22%
